The record followed here is publication PMC5259778, “Candidate pheromone receptors of codling moth Cydia pomonella respond to pheromones and kairomones” (Scientific Reports, 2017).

This assay has as its target CpomOrco (Cydia pomonella, UniProt H9A5M2). Kind of assay: Calcium imaging of HEK293T cells expressing homomeric CpomOrco. The class given is cell-based. The note with it: peak amplitudes normalized to response at 1000 μM agonist, read-out: [A]1/2 half-effective concentration of agonist, calcium response. Here is the method: HEK293T cells were grown in HEK cell media [Dulbecco’s modified Eagle’s medium containing 10% fetal bovine serum (MP Biomedicals, Solon, OH, USA), 2.0 mM L-glutamine, and 100 μg/mL Penicillin/Streptomycin (Invitrogen)] at 37 °C and 5% CO2. To test transient expression of CpomORs for calcium imaging or patch-clamp recording experiments, 35-mm petri dishes containing semi-confluent HEK293T cells were transiently transfected. To transfect cells with CpomOrco, we used 1.0 μg of pcDNA5/TO/CpomOrco DNA. In order to promote expression of the OR[51], we used double aliquots for pcDNA5/TO/CpomOR DNAs (2.0 μg), combined with 1.0 μg of pcDNA5/TO/CpomOrco for co-transfections (CpomOrco + ORs). […]
Fluorescence imaging was performed using Imaging Workbench 6 software (INDEC BioSystems, Santa Clara, CA, USA). Each cell was assigned a region of interest (ROI) and changes in fluorescence intensity within each ROI were measured and expressed as the fractional change in fluorescence intensity (dF) or in some cases as dF/F0 where F0 is the basal fluorescence level before agonist application. […] Continuous traces of multiple responses were compensated for slow drift of the baseline fluorescence when necessary. […]

Chain of CpomOrco (H9A5M2 entry or part of it): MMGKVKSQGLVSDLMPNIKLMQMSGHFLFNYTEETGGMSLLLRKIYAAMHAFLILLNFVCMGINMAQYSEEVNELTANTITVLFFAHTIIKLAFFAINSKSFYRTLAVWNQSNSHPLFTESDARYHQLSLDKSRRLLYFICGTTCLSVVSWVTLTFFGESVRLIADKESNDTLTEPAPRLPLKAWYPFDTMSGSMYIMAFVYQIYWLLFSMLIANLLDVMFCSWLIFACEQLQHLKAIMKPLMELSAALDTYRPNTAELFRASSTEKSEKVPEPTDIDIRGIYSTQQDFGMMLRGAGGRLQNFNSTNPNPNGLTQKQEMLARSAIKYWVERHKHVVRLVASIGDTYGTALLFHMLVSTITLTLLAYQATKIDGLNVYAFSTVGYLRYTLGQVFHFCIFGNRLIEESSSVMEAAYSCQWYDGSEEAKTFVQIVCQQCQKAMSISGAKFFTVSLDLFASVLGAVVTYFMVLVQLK

On to `CCn1c(SCC(=O)Nc2ccc(C(C)C)cc2)nnc1-c1ccncc1` [VUAA3, acetamide,2-[[4-ethyl-5-(4-pyridinyl)-4H-1,2,4-triazol-3-yl]thio]-N-[4-(1-methylethyl)phenyl]-], for which the EC50 was ~362 µM.
